In series [1] the test system is SHIV AD8-EO-infected rhesus macaques. Description: Complete blood counts and flow cytometry immunophenotyping of PBMCs in SHIV AD8-EO-infected RMs after BNM-III-170. It is filed as in vivo, Macaca mulatta. The protocol:
In addition to monitoring blood chemistries, complete blood counts (CBCs) were performed immediately prior to BNM-III-170 treatment and at several post-treatment timepoints (Fig. 4A). Significant increases in white blood cell counts (WBCs) were observed between 0 h and 24 h after the terminal dose of each treatment cycle (median WBCs: 7,550 and 12,595, respectively, P-value = 0.0391). This increase in WBCs was largely attributed to increases in neutrophils (median counts at 0 h vs. 24 h of 2,926 and 8,004, P-value = 0.0078) and, to a lesser extent, monocytes (median counts at 0 h vs 24 h after the terminal dose of 696 and 1,537, P-value = 0.0391). […] Of note, this lymphopenia was generally transient (Fig. S5).
To further investigate this observed lymphopenia, multiparameter flow cytometry was performed on PBMCs from 0 h and 24 h post-terminal dose timepoints from all treatment cycles (Fig. S6). […] While the exact cause of this non-specific lymphopenia is unknown, it may be due to depletion of lymphocytes or migration of lymphocytes to tissue; the latter explanation is more consistent with the transient nature of the lymphopenia.
A 20-parameter flow cytometric analysis was performed on fresh PBMCs and mononuclear cells (10^6 cells) derived from LN biopsies using anti-human monoclonal Abs (mAbs), which we ([6], [58][–][60]) and others, including databases maintained by the NHP Reagent Resource (MassBiologics), have shown as being cross-reactive in RMs. […] All samples were fixed with 1% paraformaldehyde and acquired within 24 h of fixation. Acquisition of data was performed on a FACSymphony A5 (BD Biosciences) driven by FACS DiVa software and analyzed with FlowJo (version 10.7; Becton, Dickinson, and Company).
A general note: In flow cytometry, cells or beads pass a laser one at a time.

For series [2], the system named is CH058TF-infected CEM.NKr cells. It is filed as cell-based, HIV-1. The protocol: To assess the ability of bioavailable BNM-III-170 to induce conformational changes in HIV-1 Env, we assessed the capacity of the Abs naturally elicited in these infected RMs to recognize HIV-1-infected cells before and after BNM-III-170 administration. Plasma from treated animals was incubated with CH058TF-infected CEM.NKr cells, and the ability to recognize infected cells was measured by flow cytometry. […] Importantly, as observed in uninfected RMs, plasma levels of BNM-III-170 in treated, SHIV-infected RMs closely mirrored the kinetic curves for plasma binding.
Cell surface staining was performed at 48 h post-infection. Mock-infected or HIV-1-infected CEM.NKr or primary CD4+ T cells were incubated for 45 min at 37°C with anti-Env mAbs (5 µg/mL), plasma from PWH (1:1,000 dilution), or plasma from infected RMs (1:500). When indicated, antibody/plasma incubation was done in the presence of 50 µM of BNM-III-170, or equivalent amounts of DMSO. To evaluate the capacity of plasma from SHIV-AD8-EO-infected RMs treated with BNM-III-170 to recognize HIV-1-infected cells, a 1:10 plasma dilution was used. Cells were then washed twice with PBS and stained with the appropriate Alexa Fluor 647-conjugated secondary antibody (2 µg/mL) for 20 min and the viability dye AquaVivid (Thermo Fisher Scientific) at room temperature. […]

Series [3] deals with CEM.NKr-CCR5-sLTR-Luc cells infected with SHIV AD8-EO. The format is cell-based.
Series [4] can be described thus: Plasma pharmacokinetics of BNM-III-170 in SHIV AD8-EO-infected RMs (HPLC-MS/MS). It is filed as in vivo, Macaca mulatta. As to the method:
Plasma concentrations of BNM-III-170 in SHIV-infected animals were measured via liquid chromatography and mass spectrometry at several timepoints following each BNM-III-170 dose for all treatment cycles.

Series [5] relates to SHIV AD8-EO. Description: Plasma viral loads (RT-qPCR) in SHIV AD8-EO-infected RMs during BNM-III-170 treatment. The format is in vivo, Macaca mulatta. As to the method: Next, we evaluated the ability of BNM-III-170 to reduce viral replication in these animals, measuring plasma viral loads (PVLs) at multiple timepoints during and immediately following each BNM-III-170 treatment cycle. PVLs declined by 0.92 logs in animal 14C056 following the 3 × 36 mg/kg, 3-day interval treatment cycle (between 0 h of the first dose and 9 days post third dose). […] Importantly, given the small number of animals and absence of untreated controls, it is difficult to determine if the observed reduction in PVLs in animal 14C056 was due to BNM-III-170 treatment or to the natural course of SHIV AD8 EO-infection. This highlights the need for additional, larger studies that include an untreated control arm to more accurately determine the virologic impact of BNM-III-170 on SHIV in vivo.
Plasma SHIV viral loads (SHIV-RNA copies/mL) were determined as previously described ([61]) using quantitative reverse transcription PCR (RT-qPCR) assays with a limit of detection of 60 copies/mL.
On the technique in general: Quantitative PCR measures a nucleic acid by following its amplification.

Structures are written as SMILES. Where only a bound is given, the exact number is not on record here.

For `CNCc1ccc2c(c1)C[C@H](CN=C(N)N)[C@H]2NC(=O)C(=O)Nc1ccc(Cl)c(F)c1.O=C(O)C(F)(F)F.O=C(O)C(F)(F)F` [BNM-III-170], the “white blood cell counts (WBCs), median” value in series [1] (24 h after terminal dose of each treatment cycle, 0 h median 7,550, P-value = 0.0391) is 12,595. The “monocytes, median counts” value in series [1] (24 h after terminal dose, 0 h median 696, P-value = 0.0391) is on record as 1,537. The “neutrophils, median counts” value in series [1] (24 h after terminal dose, 0 h median 2,926, P-value = 0.0078) is 8,004. Also, the “absolute numbers of NK cells, median” value in series [1] (24 h post-terminal dose, 0 h median 191, P = 0.0078) turned out to be 48 cells per μL blood. Besides, the “absolute numbers of CD4+ T cells, median” value in series [1] (24 h post-terminal dose, 0 h median 496, P = 0.0078) amounted to 283 cells per μL blood. For the same compound, in series [1] (24 h post-terminal dose, 0 h median 1,084, P = 0.0078), the “absolute numbers of CD8+ T cells, median” value was found to be 323.5 cells per μL blood. Further, the “absolute numbers of B cells, median” value in series [1] (24 h post-terminal dose, 0 h median 1,129, P = 0.0391) is recorded as 1,080 cells per μL blood. In addition, the “lymphocyte frequency in whole blood” value in series [1] (24 h post-terminal dose, 49% at 0 h, P = 0.0078) came out at 19.5%. For the same compound, the “lymphocyte numbers in whole blood” value in series [1] (24 h post-terminal dose, 3,774 at 0 h, P = 0.0078) is 2,068. Also, in series [2] (each treatment cycle, Spearman correlation), the “association of BNM-III-170 plasma concentrations with plasma binding to infected cells” value is reported as “correlated with plasma binding to infected cells”. Moreover, the “time post-administration up to which RM plasma efficiently recognized infected cells” value in series [2] (plasma from treated SHIV-infected RMs, depending on the dose used) is reported as “up to 6 h”. Also, the “binding of plasma from PWH to infected cells” value in series [3] is “enhance binding of plasma from PWH”. The compound further returned a Cmax in series [4] (SHIV AD8-EO-infected RMs, following first dose of each treatment cycle (24 or 36 mg/kg SQ)) of 4.1 to 12.8 µg/mL. In addition, the “plasma BNM-III-170 level between doses” value in series [4] (SHIV-infected RMs, 36 mg/kg once every 3 days) is on record as “below the limit of detection”. Further, the “plasma level 6 h after each dose” value in series [4] (SHIV-infected RMs, all treatment cycles, generally) is greater than 0.675 µg/mL. In addition, the “decline in plasma viral loads (PVLs)” value in series [5] (animal 14C056, 3 × 36 mg/kg SQ, 3-day interval, between 0 h of first dose and 9 days post third dose, no untreated controls) was determined as 0.92 logs. Further, the “change in plasma viral loads (PVLs)” value in series [5] (animals 14C013, RYj17, 34901, following BNM-III-170 treatments) is given as “no similar changes in PVLs were observed”.

One may read the Cmax as the highest concentration seen after dosing.

Values taken from publication PMC12090809 (Journal of Virology, 2025).
